From patent US20030215462A1, “Use of UGT inhibitors to increase bioavailability” (priority 2001, published 2003)

Experiments:
UGT1A1 = molecular target: T1, UGT1A1 (Homo sapiens, UniProt P22309); assay: Inhibition of raloxifene glucuronidation by recombinant UGT1A1 Supersomes; settings: human; for activity at 15 min, 50 µM: inhibitor 50 μM; for activity at 15 min, 25 µM: inhibitor 25 μM
T1 sequence (P22309 26-533): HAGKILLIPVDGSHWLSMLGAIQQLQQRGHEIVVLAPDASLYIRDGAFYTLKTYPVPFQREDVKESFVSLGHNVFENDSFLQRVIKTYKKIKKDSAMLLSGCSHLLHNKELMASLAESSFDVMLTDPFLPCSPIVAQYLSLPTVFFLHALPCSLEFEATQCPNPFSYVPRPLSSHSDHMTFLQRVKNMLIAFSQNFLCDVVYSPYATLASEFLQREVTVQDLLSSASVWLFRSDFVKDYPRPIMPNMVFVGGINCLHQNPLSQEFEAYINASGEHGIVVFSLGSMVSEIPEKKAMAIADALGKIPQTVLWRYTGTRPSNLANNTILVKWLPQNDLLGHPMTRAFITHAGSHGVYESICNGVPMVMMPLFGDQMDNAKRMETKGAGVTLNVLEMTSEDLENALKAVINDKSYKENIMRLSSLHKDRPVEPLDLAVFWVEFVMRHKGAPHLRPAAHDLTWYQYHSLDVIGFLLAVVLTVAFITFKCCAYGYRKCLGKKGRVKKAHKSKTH
Protocol: (§1) Compounds were eluted using a binary solvent gradient system. Solvent A was water brought to pH 8 with NH4OH. Solvent B was methanol. Solvent flow rate was 1 ml/min and the column temperature was maintained at 50° C. Detection was at 280 nm. […] The system was then returned to the initial conditions and equilibrated for 3 min.

UGT1A3 = molecular target: T2, UGT1A3 (Homo sapiens, UniProt P35503); assay: Inhibition of raloxifene glucuronidation by recombinant UGT1A3 Supersomes; settings: human; for activity at 15 min, 10 µM: inhibitor 10 μM; for activity at 15 min, 25 µM: inhibitor 25 μM; for activity at 15 min, 50 µM: inhibitor 50 μM
T2 sequence (P35503 29-534): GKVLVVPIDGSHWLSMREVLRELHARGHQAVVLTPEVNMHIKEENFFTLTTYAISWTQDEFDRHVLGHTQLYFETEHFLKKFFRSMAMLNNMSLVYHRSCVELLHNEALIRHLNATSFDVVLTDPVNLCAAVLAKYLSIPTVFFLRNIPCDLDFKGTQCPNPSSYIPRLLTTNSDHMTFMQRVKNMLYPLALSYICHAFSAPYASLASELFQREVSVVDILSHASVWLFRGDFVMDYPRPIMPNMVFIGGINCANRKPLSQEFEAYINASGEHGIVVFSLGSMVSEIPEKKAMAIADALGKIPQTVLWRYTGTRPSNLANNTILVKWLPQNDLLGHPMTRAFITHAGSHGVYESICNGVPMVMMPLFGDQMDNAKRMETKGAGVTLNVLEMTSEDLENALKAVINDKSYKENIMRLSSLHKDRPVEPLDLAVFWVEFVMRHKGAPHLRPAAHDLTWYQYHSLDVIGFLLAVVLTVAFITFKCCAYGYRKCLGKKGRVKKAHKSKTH
Protocol: as §1

UGT1A9 = molecular target: T3, UGT1A9 (Homo sapiens, UniProt O60656); assay: Inhibition of raloxifene glucuronidation by recombinant UGT1A9 Supersomes; settings: for Inhibition of raloxifene glucuronidation, UGT1A9, first line per inhibitor (G1): first line (G1, metabolite not given); for Inhibition of raloxifene glucuronidation, UGT1A9, first line per inhibitor (G1) / Inhibition of raloxifene glucuronidation, UGT1A9, second line per inhibitor (G2): raloxifene 50 μM, 250 μg/ml Supersomes, 1 mM UDPGA, 15 min; for activity at 15 min, 2 μM / activity at 15 min, 5 µM / activity at 15 min, 10 µM / activity at 15 min, 25 µM / activity at 15 min, 50 µM: human, Supersomes with recombinant human UGT1A9, pH 7.5, probe raloxifene 50 μM; for Inhibition of raloxifene glucuronidation, UGT1A9, second line per inhibitor (G2): second line (G2, metabolite not given)
T3 sequence (O60656 26-530): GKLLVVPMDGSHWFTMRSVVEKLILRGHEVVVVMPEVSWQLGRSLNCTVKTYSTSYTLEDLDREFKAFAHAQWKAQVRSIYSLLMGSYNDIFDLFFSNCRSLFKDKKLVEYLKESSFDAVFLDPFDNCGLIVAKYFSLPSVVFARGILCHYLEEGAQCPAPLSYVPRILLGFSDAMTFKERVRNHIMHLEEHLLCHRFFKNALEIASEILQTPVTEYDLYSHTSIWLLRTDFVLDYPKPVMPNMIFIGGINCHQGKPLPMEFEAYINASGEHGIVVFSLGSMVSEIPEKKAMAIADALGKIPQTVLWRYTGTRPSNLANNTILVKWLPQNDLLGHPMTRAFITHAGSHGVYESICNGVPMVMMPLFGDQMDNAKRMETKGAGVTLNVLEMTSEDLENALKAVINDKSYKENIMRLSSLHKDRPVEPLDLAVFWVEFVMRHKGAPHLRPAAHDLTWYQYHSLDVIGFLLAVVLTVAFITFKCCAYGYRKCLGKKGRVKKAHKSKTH

[1] = Supersomes with recombinant human UGT1A1, pH 7.5, probe raloxifene 50 μM, formation of glucuronide G1, Inhibition of raloxifene glucuronidation, G1, UGT1A1, G1, raloxifene 50 μM, 250 μg/ml Supersomes, 1 mM UDPGA, 15 min
[2] = Supersomes with recombinant human UGT1A1, pH 7.5, probe raloxifene 50 μM, formation of glucuronide G2, % of control metabolism, raloxifene G2, UGT1A1
[3] = recombinant UGT1A1 Supersomes, pH 7.5, probe raloxifene 50 μM (formation of glucuronide G2), Inhibition of raloxifene glucuronidation, G2, UGT1A1, G2, raloxifene 50 μM, 250 μg/ml Supersomes, 1 mM UDPGA, 15 min
[4] = Supersomes with recombinant human UGT1A3, pH 7.5, probe raloxifene 50 μM, formation of glucuronide G1, % of control metabolism, raloxifene G1, UGT1A3
[5] = Supersomes with recombinant human UGT1A3, pH 7.5, probe raloxifene 50 μM, formation of glucuronide G2, % of control metabolism, raloxifene G2, UGT1A3
[6] = recombinant UGT1A3 Supersomes, pH 7.5, probe raloxifene 50 μM (formation of glucuronide G1), Inhibition of raloxifene glucuronidation, G1, UGT1A3, G1, raloxifene 50 μM, 250 μg/ml Supersomes, 1 mM UDPGA, 15 min
[7] = recombinant UGT1A3 Supersomes, pH 7.5, probe raloxifene 50 μM (formation of glucuronide G2), Inhibition of raloxifene glucuronidation, G2, UGT1A3, G2, raloxifene 50 μM, 250 μg/ml Supersomes, 1 mM UDPGA, 15 min

activity at 15 min, 50 µM (UGT1A1; Supersomes with recombinant human UGT1A1, pH 7.5, probe raloxifene 50 μM, formation of glucuronide G1, % of control metabolism, raloxifene G1, UGT1A1): 12%
activity at 15 min, 25 µM (UGT1A1; [1]): 26%
activity at 15 min, 50 µM (UGT1A1; [1]): 12%
activity at 15 min, 10 µM (UGT1A1; Supersomes with recombinant human UGT1A1, pH 7.5, probe raloxifene 50 μM, formation of glucuronide G2, % of control metabolism, raloxifene G2, UGT1A1, inhibitor 10 μM): 72%
activity at 15 min, 25 µM (UGT1A1; [2]): 41%
activity at 15 min, 50 µM (UGT1A1; [2]): 27%
activity at 15 min (UGT1A1; recombinant UGT1A1 Supersomes, pH 7.5, probe raloxifene 50 μM (formation of glucuronide G2)): 72%
activity at 15 min, 25 µM (UGT1A1; [3]): 41%
activity at 15 min, 50 µM (UGT1A1; [3]): 27%
activity at 15 min, 10 µM (UGT1A3; [4]): 65%
activity at 15 min, 25 µM (UGT1A3; [4]): 32%
activity at 15 min, 50 µM (UGT1A3; [4]): 14%
activity at 15 min, 10 µM (UGT1A3; [5]): 74%
activity at 15 min, 25 µM (UGT1A3; [5]): 48%
activity at 15 min, 50 µM (UGT1A3; [5]): 21%
activity at 15 min, 10 µM (UGT1A3; [6]): 65%
activity at 15 min, 25 µM (UGT1A3; [6]): 32%
activity at 15 min, 50 µM (UGT1A3; [6]): 14%
activity at 15 min, 10 µM (UGT1A3; [7]): 74%
activity at 15 min, 25 µM (UGT1A3; [7]): 48%
activity at 15 min, 50 µM (UGT1A3; [7]): 21%
Inhibition of raloxifene glucuronidation, UGT1A9, first line per inhibitor (G1) (UGT1A9; inhibitor 2 μM): 90 (0)
Inhibition of raloxifene glucuronidation, UGT1A9, first line per inhibitor (G1) (UGT1A9; inhibitor 5 μM): 86 (0)
Inhibition of raloxifene glucuronidation, UGT1A9, first line per inhibitor (G1) (UGT1A9; inhibitor 10 μM): 78 (3)
Inhibition of raloxifene glucuronidation, UGT1A9, first line per inhibitor (G1) (UGT1A9; inhibitor 25 μM): 49 (5)
Inhibition of raloxifene glucuronidation, UGT1A9, first line per inhibitor (G1) (UGT1A9; inhibitor 50 μM): 31 (2)
activity at 15 min, 2 μM (UGT1A9; formation of glucuronide G1, % of control metabolism, raloxifene G1, UGT1A9, inhibitor 2 μM): 90%
activity at 15 min, 5 µM (UGT1A9; formation of glucuronide G1, % of control metabolism, raloxifene G1, UGT1A9, inhibitor 5 μM): 86%
activity at 15 min, 10 µM (UGT1A9; formation of glucuronide G1, % of control metabolism, raloxifene G1, UGT1A9, inhibitor 10 μM): 78%
activity at 15 min, 25 µM (UGT1A9; formation of glucuronide G1, % of control metabolism, raloxifene G1, UGT1A9, inhibitor 25 μM): 49%
activity at 15 min, 50 µM (UGT1A9; formation of glucuronide G1, % of control metabolism, raloxifene G1, UGT1A9, inhibitor 50 μM): 31%
activity at 15 min, 2 μM (UGT1A9; formation of glucuronide G2, % of control metabolism, raloxifene G2, UGT1A9, inhibitor 2 μM): 175%
activity at 15 min, 5 µM (UGT1A9; formation of glucuronide G2, % of control metabolism, raloxifene G2, UGT1A9, inhibitor 5 μM): 260%
activity at 15 min, 10 µM (UGT1A9; formation of glucuronide G2, % of control metabolism, raloxifene G2, UGT1A9, inhibitor 10 μM): 290%
activity at 15 min, 25 µM (UGT1A9; formation of glucuronide G2, % of control metabolism, raloxifene G2, UGT1A9, inhibitor 25 μM): 309%
activity at 15 min, 50 µM (UGT1A9; formation of glucuronide G2, % of control metabolism, raloxifene G2, UGT1A9, inhibitor 50 μM): 245%
Inhibition of raloxifene glucuronidation, UGT1A9, second line per inhibitor (G2) (UGT1A9; inhibitor 2 μM): 175 (0)
Inhibition of raloxifene glucuronidation, UGT1A9, second line per inhibitor (G2) (UGT1A9; inhibitor 5 μM): 260 (3)
Inhibition of raloxifene glucuronidation, UGT1A9, second line per inhibitor (G2) (UGT1A9; inhibitor 10 μM): 290 (9)
Inhibition of raloxifene glucuronidation, UGT1A9, second line per inhibitor (G2) (UGT1A9; inhibitor 50 μM): 245 (3)
SMILES: CC/C(=C(/CC)c1ccc(O)cc1)c1ccc(O)cc1 [Diethylstilbestrol, reference compound]
